Data set [1] in a line: Cytotoxicity assay for HepG2 (MTT). The class given is cell-based, human. As to conditions: human. The protocol: (§1) Mammalian cytotoxicity assays were performed by Cyprotex. Cytotoxicity was assessed using the MTT assay. Briefly, HepG2 human hepatocellular carcinoma cells (100 μL per well) were plated on black-walled clear-bottomed polystyrene 96-well tissue culture treated plates 24 h prior to dosing the cells. The cells were dosed with test compound (dissolved in 0.5% DMSO in growth media containing 10% FBS) at a range of concentrations (0.04 μM, 0.1 μM, 0.4 μM, 1 μM, 4 μM, 10 μM, 40 μM, 100 μM). After 23 h period the cells were loaded with the MTT dye (yellow; 3-(4,5-dimethyl-2-thiazolyl)-2,5-diphenyl-2H-tetrazolium bromide) followed by an additional 1 h incubation (resulting in a total incubation time with antibiotics of 24 h). Subsequently, the plates are dried and solubilized in DMSO followed by scanning at 570 nm using a microplate absorbance reader. Cell viability is determined by conversion of the soluble MTT to insoluble formazan (purple) by mitochondrial […] in live cells. Production of formazan indicates […]. Carbonyl cyanide 3-chlorophenylhydrazone is used as no response control and chlorpromazine is used as control known to be cytotoxic. Solvent control wells (0.5% DMSO in growth media containing 10% FBS) are then used to determine significance limits for wells that have a greater than expected fraction of low or high responders. The minimum effective concentration is determined from the lowest concentration whose mean value exceeds the significance level, provided either a clear dose-response relationship is observed, or at least two consecutive concentration points are above the significance level. AC50 values are also determined provided a clear dose-response relationship is observed. Experiment was performed in triplicates.

Data set [2] relates to HepG2 human hepatocellular carcinoma cells. Put plainly: Cytotoxicity assay for HepG2 (MTT). The class given is cell-based. The protocol:
as §1

Data set [3] concerns S. aureus 880 (BR-VRSA), NR-49120. Kind of data set: MIC assay. The settings on record: Staphylococcus aureus; S. aureus 880, NR-49120 VRSA; read-out: MIC. The class given is cell-based, Staphylococcus aureus. An outline of the steps:
(§2)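 CLSI broth microdilution in TSB + 0.002% polysorbate 80, 10^6 CFU/mL inoculum, 2-fold compound dilutions, 24 h at 37° C with shaking (600 rpm). VISA, VRSA and Enterococcus inocula grown to 0.5 McFarland before dilution; vancomycin-sensitive S. aureus by direct colony suspension. MIC (μg/mL) as median of ≥ triplicates.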

Another data set concerns S. aureus ATCC29213. Kind of data set: MIC assay. The settings on record: Staphylococcus aureus, ATCC 29213 / MSSA. The data set is classed as cell-based, Staphylococcus aureus. The method, boiled down:
as §2

In data set [4] the test system is S. aureus HIP12864, NR-46074. Put plainly: MIC assay. The settings on record: Staphylococcus aureus; S. aureus HIP12864, NR-46074 VISA; read-out: MIC. The class given is cell-based, Staphylococcus aureus. An outline of the steps:
as §2

For data set [5], the system named is S. aureus LIM-2, NR-25881. Kind of data set: MIC assay. The class given is cell-based, Staphylococcus aureus. As to conditions: Staphylococcus aureus; S. aureus LIM-2, NR-25881 VISA; read-out: MIC. The method, boiled down:
as §2

For data set [6], the system named is S. aureus NY-155, NR-46236. Put plainly: MIC assay. The class given is cell-based, Staphylococcus aureus. The settings on record: Staphylococcus aureus; S. aureus NY-155, NR-46236 MRSA; read-out: MIC. An outline of the steps:
as §2

Data set [7] has as its system S. aureus HIP13419, NR-46413. Put plainly: microbe, parasite or virus in culture. The class given is cell-based, Staphylococcus aureus. The settings on record: Staphylococcus aureus, VRSA. An outline of the steps:
as §2

For a further data set, the system named is S. aureus USA300. Kind of data set: microbe, parasite or virus in culture. The settings on record: Staphylococcus aureus, MRSA / USA300. The class given is cell-based, Staphylococcus aureus. An outline of the steps: as §2
In another data set the test system is E. faecium E980. Put plainly: MIC assay. The data set is classed as cell-based, Enterococcus faecium. The settings on record: Enterococcus faecium, E980. The method, boiled down: as §2
In a further data set the test system is E. faecium E155. Put plainly: microbe, parasite or virus in culture. The data set is classed as cell-based, Enterococcus faecium. As to conditions: Enterococcus faecium, VRE. The method, boiled down:
as §2

Another data set has as its system E. faecium E7314. Put plainly: microbe, parasite or virus in culture. The class given is cell-based, Enterococcus faecium. As to conditions: Enterococcus faecium, VRE. An outline of the steps: as §2
Another data set deals with E. faecalis E1246. Put plainly: MIC assay. The data set is classed as cell-based, Enterococcus faecalis. The method, boiled down:
as §2

The test system of the next data set is E. faecalis E7406. Kind of data set: microbe, parasite or virus in culture. The data set is classed as cell-based, Enterococcus faecalis. As to conditions: Enterococcus faecalis, VRE. An outline of the steps: as §2
In another data set the test system is E. faecalis E7604. Kind of data set: microbe, parasite or virus in culture. The data set is classed as cell-based, Enterococcus faecalis. The settings on record: Enterococcus faecalis, VRE. An outline of the steps: as §2
For the next data set, the system named is S. pneumoniae 153. Put plainly: MIC assay. The data set is classed as cell-based. The settings on record: Streptococcus pneumoniae; S. pneumoniae 153; TSB+0.002% p80+5% lysed horse blood; read-out: MIC. The method, boiled down:
as §2

The next data set has as its system MRSA USA300. Kind of data set: MIC assay in the presence of sheep serum. The data set is classed as cell-based, Staphylococcus aureus. As to conditions: Staphylococcus aureus, 24 h; MRSA USA300, TSB + 0.002% p80 + 50% sheep serum; read-out: MIC. An outline of the steps: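 Broth microdilution MIC per CLSI against MRSA USA300, 2-fold compound dilutions, 10^6 CFU/mL inoculum (pre-mixing), polypropylene plates, 37 °C for 24 h with shaking. Medium was TSB + 0.002% polysorbate 80 + 50% sheep serum; MIC as median of at least triplicates, in μg/mL.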

The next data set relates to MRSA USA 300. Kind of data set: Resistance development serial passage assay. The class given is cell-based, Staphylococcus aureus. The settings on record: MRSA serially passaged over 30 days in sub-lethal antibiotic concentrations. The protocol: (§3) FIG. 3 illustrates the results obtained when selected compounds were assessed using a resistance development serial passage assay. A) Daily fold-increase of MIC compared to initial MIC against MRSA USA 300 grown in sub-lethal concentrations of daptomycin, compound 5 or compound 16 over 30 days. B). Daily fold-increase of MIC compared to initial MIC against VRE E155 grown in sub-lethal concentrations of daptomycin, compound 5 or compound 16 over 30 days.
(§4) From glycerol stocks, bacterial strains were cultured on blood agar plates and incubated overnight at 37° C. A single colony was grown to exponential phase (OD600=0.5) in TSB+0.002% p80 and diluted 1:100 in fresh media. In polypropylene 96-well microtiter plates, antibiotics were added in biological triplicates and serial diluted 2-fold by transfer and mixing from one well to the next to achieve a final volume of 50 μL per well. An equal volume of bacterial suspension was added to the wells and plates were incubated overnight at 37° C. […] This procedure was repeated for 30 days and the MIC was recorded daily. Cultures containing daptomycin were supplemented with 50 mg L^−1 CaCl2 and 10 mg L^−1 MgSO4. The experiment was performed in biological replicates and for each replicate the MIC was determined from the median of a minimum of triplicates.

A further data set concerns VRE E155. Kind of data set: Resistance development serial passage assay. The settings on record: VanA-type VRE strain serially passaged over 30 days in sub-lethal antibiotic concentrations. The class given is cell-based, Enterococcus faecium. The protocol: as §3, §4

In brackets after ≈: the same amount, converted by molar mass. Where two headings read alike, the source gives them in different places.

Take `CN(C)CCCN1c2ccccc2Sc2ccc(Cl)cc21` [Chropromazine]: the AC50 at 24 h in data set [1] amounted to 19 µM. Also, the “Direction of response (↑↓)” value in data set [2] is “↓”. This compound also displayed an MEC in data set [2] (human, 24 h) of 12.4 µM.
Turning to `CN[C@H]1C(=O)N[C@@H]2Cc3ccc(cc3)Oc3cc4cc(c3O[C@@H]3O[C@H](C(=O)O)[C@@H](O)[C@H](O)[C@H]3NC(=O)CCCCCCCCC(C)C)Oc3ccc(cc3Cl)[C@@H](O)[C@@H]3NC(=O)[C@H](NC(=O)[C@@H]4NC(=O)[C@@H](NC2=O)c2cc(cc(O)c2Cl)Oc2cc1ccc2O)c1ccc(O)c(c1)-c1c(O[C@H]2O[C@H](CO)[C@@H](O)[C@H](O)[C@@H]2O)cc(O)cc1[C@@H](C(=O)NCCCN(C)C)NC3=O` [Dalbavancin, reference compound], the MIC is 2 µg/mL (≈ 1.1 µM) in [3]; 0.25 µg/mL (≈ 0.138 µM) in the data set on S. aureus ATCC29213; 0.5 µg/mL (≈ 0.275 µM) in data set [4]; 1 µg/mL (≈ 0.55 µM) in data set [5]; not above 8 ng/mL in data set [6]; 16 µg/mL (≈ 8.81 µM) in data set [7]. Besides, the MIC against S. aureus USA300 is 0.25 µg/mL (≈ 0.138 µM); in the data set with E. faecium E980, 0.0625 µg/mL (≈ 0.0344 µM); against E. faecium E155 it was 128 µg/mL (≈ 70.5 µM); in the data set with E. faecium E7314 it was 0.0156 µg/mL (≈ 0.0086 µM); in the data set on E. faecalis E1246 (E. faecalis E1246 VRE (vanA), Table 9), more than 128 µg/mL; in the data set on E. faecalis E1246 (Enterococcus faecalis, E. faecalis E1246 VRE (VanA), Table 7, read-out: MIC), more than 128 µg/mL. In addition, the MIC in the data set on E. faecalis E7406 is 0.0312 µg/mL (≈ 0.0172 µM); in the data set on E. faecalis E7604 it was 0.031 µg/mL (≈ 0.0171 µM); in the data set on S. pneumoniae 153, not above 8 ng/mL; with MRSA USA300, 2 µg/mL.
Consider `N#CC(C#N)=NNc1cccc(Cl)c1` [carbonyl cyanide 3-chlorophenylhydrazone], for which, in [1] (HepG2 human hepatocellular carcinoma cells, MTT, HepG2, 24 h, 10% FBS, n = 3, read-out: AC50), the AC50 at 24 h was more than 100 µM.
`CCCCCCCCCC(=O)N[C@@H](Cc1c[nH]c2ccccc12)C(=O)N[C@H](CC(N)=O)C(=O)N[C@@H](CC(=O)O)C(=O)N[C@@H]1C(=O)NCC(=O)N[C@@H](CCCN)C(=O)N[C@@H](CC(=O)O)C(=O)N[C@H](C)C(=O)N[C@@H](CC(=O)O)C(=O)NCC(=O)N[C@H](CO)C(=O)N[C@@H]([C@H](C)CC(=O)O)C(=O)N[C@@H](CC(=O)c2ccccc2N)C(=O)O[C@@H]1C` [daptomycin, reference compound]: the “resistance induction, fold-increase of MIC compared to initial MIC” value worked out at 16 fold with MRSA USA 300 and 128 fold in the data set with VRE E155.

(Values after patent US20230174584A1, “Antibiotic Compounds” (priority 2019, published 2023).)
